From patent publication US9499519B2, “Fused pyrimidine compounds and use thereof” (Medivation Technologies, Inc., priority 2012, dated 2016)

Tested on: Akt phosphorylation induced by IGF-1R
Assay: Western blot analysis of Akt phosphorylation induced by IGF-1 in HT-29 cells
Assay type: cell-based, Human
Conditions: for Levels of phosphorylated AKT in treated cells (pAKT/actin): HT-29 cells, IGF-1; for p-AKT relative to levels with 0.1 nM compound: Table B2 lower part; for Normalized phosphorylated AKT (relative to actin) levels relative to 0.1 nM compound treatment: Table B2 upper part
Method: Inhibition of Akt phosphorylation induced by IGF-1R was studied by western blot analysis. Human colon carcinoma HT-29 cells were seeded at a density of 8×10^4 cells/well in a 24-well plate and grown in DME/F12 media containing 10% FBS for 24 h. The cells were then depleted of serum by incubation in DME/F12 media lacking FBS for 24 h. […] […] Lysed cells were centrifuged at 13,000 rpm for 15 min and the protein concentration soluble fraction (supernatant) of each sample was determined using a BCA protein assay (Pierce).

| Structure (SMILES) | Levels of phosphorylated AKT in treated cells (pAKT/actin) (0.1 nM compound) | p-AKT relative to levels with 0.1 nM compound (0.1 nM) | Normalized phosphorylated AKT (relative to actin) levels relative to 0.1 nM compound treatment (0.1 nM) | Levels of phosphorylated AKT in treated cells (pAKT/actin) (1 nM compound) | p-AKT relative to levels with 0.1 nM compound (1 nM) | Normalized phosphorylated AKT (relative to actin) levels relative to 0.1 nM compound treatment (1 nM) | Levels of phosphorylated AKT in treated cells (pAKT/actin) (10 nM compound) | p-AKT relative to levels with 0.1 nM compound (10 nM) | Normalized phosphorylated AKT (relative to actin) levels relative to 0.1 nM compound treatment (10 nM) | Levels of phosphorylated AKT in treated cells (pAKT/actin) (100 nM compound) | p-AKT relative to levels with 0.1 nM compound (100 nM) | Normalized phosphorylated AKT (relative to actin) levels relative to 0.1 nM compound treatment (100 nM) |
| --- | --- | --- | --- | --- | --- | --- | --- | --- | --- | --- | --- | --- |
| O=C(Nc1ccc(F)nc1)C1CCCCN1c1nc2c(c(Nc3cc(C4CC4)[nH]n3)n1)CCC2 (racemic) [Compound 9, 1-(4-(3-cyclopropyl-1H-pyrazol-5-ylamino)-6,7-dihydro-5H-cyclopenta[d]pyrimidin-2-yl)-N-(6-fluoropyridin-3-yl)piperidine-2-carboxamide] | 0.67 | 1.0 | 1.0 | 0.71 | 1.1 | 1.1 | 0.07 | 0.1 | 0.1 | 0.00 | 0.0 | 0.0 |
| O=C(Nc1ccc(F)nc1)C1CCCN1c1nc2c(c(Nc3cc(C4CC4)[nH]n3)n1)CCCC2 (single isomer, unassigned) [Compound 14a, 1-(4-(5-cyclopropyl-1H-pyrazol-3-ylamino)-5,6,7,8-tetrahydroquinazolin-2-yl)-N-(6-fluoropyridin-3-yl)pyrrolidine-2-carboxamide] | 0.73 | 1.0 | 1.0 | 0.51 | 0.7 | 0.7 | 0.43 | 0.6 | 0.6 | 0.35 | 0.5 | 0.5 |
| O=C(Nc1cncnc1)C1CCCN1c1nc2c(c(Nc3cc(C4CC4)[nH]n3)n1)CCC2 (racemic) [Compound 7, 1-(4-(3-cyclopropyl-1H-pyrazol-5-ylamino)-6,7-dihydro-5H-cyclopenta[d]pyrimidin-2-yl)-N-(pyrimidin-5-yl)pyrrolidine-2-carboxamide] | 1.45 | 1.0 | 1.0 | 2.08 | 1.4 | 1.4 | 1.09 | 0.7 | 0.7 | 1.20 | 0.8 | 0.8 |
| O=C(Nc1cccnc1)C1CCCN1c1nc2c(c(Nc3cc(C4CC4)[nH]n3)n1)CCC2 (single isomer, unassigned) [Compound 3a, 1-(4-(5-cyclopropyl-1H-pyrazol-3-ylamino)-6,7-dihydro-5H-cyclopenta[d]pyrimidin-2-yl)-N-(pyridin-3-yl)pyrrolidine-2-carboxamide] | 2.64 | 1.0 | 1.0 | 1.68 | 0.6 | 0.6 | 1.86 | 0.7 | 0.7 | 2.19 | 0.8 | 0.8 |
| O=C(Nc1ccc(F)nc1)C1CCCN1c1nc2c(c(Nc3cc(C4CC4)[nH]n3)n1)CCC2 (racemic) [Compound 2, 1-(4-(5-cyclopropyl-1H-pyrazol-3-ylamino)-6,7-dihydro-5H-cyclopenta[d]pyrimidin-2-yl)-N-(6-fluoropyridin-3-yl)pyrrolidine-2-carboxamide] | 1.04 | 1.0 | 1.0 | 0.91 | 0.9 | 0.9 | 0.07 | 0.1 | 0.1 | 0.00 | 0.0 | 0.0 |
| O=C(Nc1ccc(F)nc1)C1CCCCN1c1nc2c(c(Nc3cc(C4CCCC4)[nH]n3)n1)CCC2 (single isomer, unassigned) [Compound 17a, 1-(4-(5-cyclopentyl-1H-pyrazol-3-ylamino)-6,7-dihydro-5H-cyclopenta[d]pyrimidin-2-yl)-N-(6-fluoropyridin-3-yl)piperidine-2-carboxamide] | 0.89 | 1.0 | 1.0 | 1.22 | 1.4 | 1.4 | 1.01 | 1.1 | 1.1 | 1.08 | 1.2 | 1.2 |
| O=C(Nc1cnccn1)C1CCCN1c1nc2c(c(Nc3cc(C4CC4)[nH]n3)n1)CCC2 (racemic) [Compound 6, 1-(4-(3-cyclopropyl-1H-pyrazol-5-ylamino)-6,7-dihydro-5H-cyclopenta[d]pyrimidin-2-yl)-N-(pyrazin-2-yl)pyrrolidine-2-carboxamide] | 1.54 | 1.0 | 1.0 | 0.22 | 0.1 | 0.1 | 0.01 | 0.0 | 0.0 | 0.01 | 0.0 | 0.0 |
| O=C(Nc1ccc(F)nc1)C1CCCN1c1nc2c(c(Nc3cc(C4CC4)[nH]n3)n1)CCCC2 (single isomer, unassigned) [Compound 14b, 1-(4-(5-cyclopropyl-1H-pyrazol-3-ylamino)-5,6,7,8-tetrahydroquinazolin-2-yl)-N-(6-fluoropyridin-3-yl)pyrrolidine-2-carboxamide] | 0.51 | 1.0 | 1.0 | 0.49 | 0.9 | 0.9 | 0.02 | 0.0 | 0.0 | 0.00 | 0.0 | 0.0 |
